Source: patent US8802673B2, “Heterocyclic amine derivatives” (Hoffmann-La Roche Inc, priority 2011, dated 2014)
pKd: −log10 of the molar value.

Legend:
mouse TAAR1 = mouse TAAR1 (Mus musculus (Mouse), UniProt Q923Y8); assay: Radioligand binding assay on mouse TAAR1; conditions: for Ki: mouse TAAR1 (first value of the cell), HEK-293 membranes, read-out: Ki (μM) mouse/rat
Outline: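 Membranes from HEK293 cells stably expressing mouse TAAR1, Kd of radioligand determined per batch by saturation. Compounds tested 10 pM to 10 μM in duplicate, incubated 1 h at 4 °C, then filtration over PEI-soaked GF/C filters and scintillation counting.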

rat TAAR1 = rat TAAR1 (Rattus norvegicus (Rat), UniProt Q923Y9); assay: Radioligand binding assay on rat TAAR1; conditions: for Ki: rat TAAR1 (second value of the cell), HEK-293 membranes, read-out: Ki (μM) mouse/rat
Sequence of rat TAAR1 (Q923Y9 whole entry): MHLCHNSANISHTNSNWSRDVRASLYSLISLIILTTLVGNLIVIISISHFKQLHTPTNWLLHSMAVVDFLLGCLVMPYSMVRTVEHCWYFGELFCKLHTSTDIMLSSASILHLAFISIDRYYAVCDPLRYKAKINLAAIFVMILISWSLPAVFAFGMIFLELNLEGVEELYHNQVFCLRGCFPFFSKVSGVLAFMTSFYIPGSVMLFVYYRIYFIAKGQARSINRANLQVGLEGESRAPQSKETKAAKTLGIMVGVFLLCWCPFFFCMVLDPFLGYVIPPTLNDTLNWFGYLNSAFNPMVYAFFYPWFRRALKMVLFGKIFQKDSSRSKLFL
Outline: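 Membranes from HEK293 cells stably expressing rat TAAR1 were used, with radioligand Kd determined by saturation for each batch. Compounds (10 pM to 10 μM, in duplicate) were incubated for 1 h at 4 °C. Bound radioactivity was collected by filtration onto PEI-soaked GF/C filters and counted by scintillation.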

Sequence of mouse TAAR1 (Q923Y8 whole entry): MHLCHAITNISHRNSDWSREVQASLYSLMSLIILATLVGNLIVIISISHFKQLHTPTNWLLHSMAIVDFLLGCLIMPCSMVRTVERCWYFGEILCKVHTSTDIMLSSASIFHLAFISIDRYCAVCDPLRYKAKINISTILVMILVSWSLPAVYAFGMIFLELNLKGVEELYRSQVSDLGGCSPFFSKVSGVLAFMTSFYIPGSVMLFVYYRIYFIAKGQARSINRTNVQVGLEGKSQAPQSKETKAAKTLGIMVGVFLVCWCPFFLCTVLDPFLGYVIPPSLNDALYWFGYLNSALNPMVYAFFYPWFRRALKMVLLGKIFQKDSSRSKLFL

| Compound | Ki (mouse TAAR1) | Ki (rat TAAR1) | pKd (mouse TAAR1; mouse TAAR1 membranes, saturation curve, usual value, read-out: dissociation constant (Kd) of the radioligand) | pKd (rat TAAR1; rat TAAR1 membranes, saturation curve, usual value, read-out: dissociation constant (Kd) of the radioligand) |
| --- | --- | --- | --- | --- |
| FC(F)Oc1cnc(Oc2cnc(Nc3ccc([C@@H]4CNCCO4)cc3Cl)nc2)nc1 [Example 175, (R)—N-(2-Chloro-4-(morpholin-2-yl)phenyl)-5-(5-(difluoromethoxy)pyrimidin-2-yloxy)pyrimidin-2-amine] | 0.006 µM | 0.0066 µM | – | – |
| c1cnc(Nc2ccc([C@@H]3CNCCO3)cc2)nc1 [Example 176, (R)—N-(4-(Morpholin-2-yl)phenyl)pyrimidin-2-amine] | 0.152 µM | > 10 µM | – | – |
| c1ccc2nc(Nc3ccc([C@@H]4CNCCO4)cc3)ncc2c1 [Example 177, ((R)-4-Morpholin-2-yl-phenyl)-quinazolin-2-yl-amine] | 0.0028 µM | 0.0299 µM | – | – |
| Cc1cc(C(F)(F)F)nc(Nc2ccc([C@@H]3CNCCO3)cc2)n1 [Example 178, (4-Methyl-6-trifluoromethyl-pyrimidin-2-yl)-((R)-4-morpholin-2-yl-phenyl)-amine] | 0.0043 µM | 0.0298 µM | – | – |
| FC(F)Oc1cnc(Nc2ccc([C@@H]3CNCCO3)cc2)nc1 [Example 179, (R)-5-(Difluoromethoxy)-N-(4-(morpholin-2-yl)phenyl)pyrimidin-2-amine] | 0.0047 µM | 0.0517 µM | – | – |
| COc1cc(Cl)nc(Nc2ccc([C@@H]3CNCCO3)cc2)n1 [Example 180, (4-Chloro-6-methoxy-pyrimidin-2-yl)-((R)-4-morpholin-2-yl-phenyl)-amine] | 0.0058 µM | 0.033 µM | – | – |
| N#Cc1ccnc(Nc2ccc([C@@H]3CNCCO3)cc2)n1 [Example 181, 2-((R)-4-Morpholin-2-yl-phenylamino)-pyrimidine-4-carbonitrile] | 0.0084 µM | 0.398 µM | – | – |
| Cc1cc(C)nc(Nc2ccc([C@@H]3CNCCO3)cc2)n1 [Example 182, (4,6-Dimethyl-pyrimidin-2-yl)-((R)-4-morpholin-2-yl-phenyl)-amine] | 0.0144 µM | 0.447 µM | – | – |
| COc1cc(OC)nc(Nc2ccc([C@@H]3CNCCO3)cc2)n1 [Example 183, (4,6-Dimethoxy-pyrimidin-2-yl)-((R)-4-morpholin-2-yl-phenyl)-amine] | 0.0094 µM | 0.174 µM | – | – |
| FC(F)(F)c1cnc(Nc2ccc([C@@H]3CNCCO3)cc2)c(Cl)c1 [Example 185, (R)-3-Chloro-N-(4-(morpholin-2-yl)phenyl)-5-(trifluoromethyl)pyridin-2-amine] | 0.0549 µM | 0.0888 µM | – | – |
| Clc1ncc(Cl)c(Nc2ccc([C@H]3CNCCO3)cc2)n1 [Example 186, (S)-2,5-Dichloro-N-(4-(morpholin-2-yl)phenyl)pyrimidin-4-amine] | 0.138 µM | 1.1 µM | – | – |
| FC(F)(F)COc1ccnc(Nc2ccc([C@H]3CNCCO3)cc2)n1 [Example 187, ((S)-4-Morpholin-2-yl-phenyl)-[4-(2,2,2-trifluoro-ethoxy)-pyrimidin-2-yl]-amine] | 0.0021 µM | 0.01 µM | – | – |
| c1cc(C2CC2)nc(Nc2ccc([C@@H]3CNCCO3)cc2)n1 [Example 189, (4-Cyclopropyl-pyrimidin-2-yl)-((R)-4-morpholin-2-yl-phenyl)-amine] | 0.109 µM | 0.0605 µM | – | – |
| Fc1cnc(Nc2ccc([C@@H]3CNCCO3)cc2)nc1C1CC1 [Example 190, (4-Cyclopropyl-5-fluoro-pyrimidin-2-yl)-((R)-4-morpholin-2-yl-phenyl)-amine] | 0.0031 µM | 0.0422 µM | – | – |
| FS(F)(F)(F)(F)c1ccc(Nc2ccc([C@@H]3CNCCO3)cc2)cc1 [Example 191, (4-Pentalluorosulfanyl-phenyl)-((R)-4-morpholin-2-yl-phenyl)-amine] | 0.001 µM | 0.0032 µM | – | – |
| Fc1cc(Nc2ncc(C3CC3)cn2)ccc1[C@@H]1CNCCO1 [Example 192, (R)-5-Cyclopropyl-N-(3-fluoro-4-(morpholin-2-yl)phenyl)pyrimidin-2-amine] | 0.0025 µM | 0.0026 µM | – | – |
| Clc1cc(Nc2ncc(C3CC3)cn2)ccc1[C@H]1CNCCO1 [Example 193, ((S)-3-Chloro-4-morpholin-2-yl-phenyl)-(5-cyclopropyl-pyrimidin-2-yl)-amine] | 0.0038 µM | 0.0196 µM | – | – |
| Clc1cc(Nc2ncc(C3CC3)cn2)ccc1[C@@H]1CNCCO1 [Example 194, ((R)-3-Chloro-4-morpholin-2-yl-phenyl)-(5-cyclopropyl-pyrimidin-2-yl)-amine] | 0.0021 µM | 0.0011 µM | – | – |

| Compound | Ki (mouse TAAR1) | Ki (rat TAAR1) | pKd (mouse TAAR1; mouse TAAR1 membranes, saturation curve, usual value, read-out: dissociation constant (Kd) of the radioligand) | pKd (rat TAAR1; rat TAAR1 membranes, saturation curve, usual value, read-out: dissociation constant (Kd) of the radioligand) |
| --- | --- | --- | --- | --- |
| Fc1cc(Nc2ncc(C3CC3)cn2)ccc1[C@H]1CNCCO1 [Example 195, (S)-5-Cyclopropyl-N-(3-fluoro-4-(morpholin-2-yl)phenyl)pyrimidin-2-amine] | 0.0017 µM | 0.0252 µM | – | – |
| Fc1cc(Nc2ncc(C(F)(F)F)cn2)ccc1[C@@H]1CNCCO1 [Example 196, (R)—N-(3-Fluoro-4-(morpholin-2-yl)phenyl)-5-(trifluoromethyl)pyrimidin-2-amine] | 0.0049 µM | 0.004 µM | – | – |
| Fc1cc(Nc2ncc(C(F)(F)F)cn2)ccc1[C@H]1CNCCO1 [Example 197, (S)—N-(3-Fluoro-4-(morpholin-2-yl)phenyl)-5-(trifluoromethyl)pyrimidin-2-amine] | 0.0031 µM | 0.0315 µM | – | – |
| FC(F)(F)c1cc(Nc2ccc([C@@H]3CNCCO3)cc2)ncn1 [Example 198, (R)—N-(4-(Morpholin-2-yl)phenyl)-6-(trifluoromethyl)pyrimidin-4-amine] | 0.0419 µM | 0.163 µM | – | – |
| Clc1cc(Nc2ccc([C@@H]3CNCCO3)cc2)ncn1 [Example 199, (R)-6-Chloro-N-(4-(morpholin-2-yl)phenyl)pyrimidin-4-amine] | 0.0231 µM | 0.056 µM | – | – |
| FC(F)(F)c1nccc(Nc2ccc([C@@H]3CNCCO3)cc2)n1 [Example 200, (R)—N-(4-(morpholin-2-yl)phenyl)-2-(trifluoromethyl)pyrimidin-4-amine] | 0.0089 µM | 0.0588 µM | – | – |
| FC(F)(F)c1cnc(Nc2ccc([C@@H]3CNCCO3)cc2)cn1 [Example 201, (R)—N-(4-(Morpholin-2-yl)phenyl)-5-(trffluoromethyl)pyrazin-2-amine] | 0.008 µM | 0.0626 µM | – | – |
| Clc1cnc(Nc2ccc([C@@H]3CNCCO3)c(Cl)c2)nc1 [Example 202, ((R)-3-Chloro-4-morpholin-2-yl-phenyl)-(5-chloro-pyrimidin-2-yl)-amine] | 0.0032 µM | 0.0065 µM | – | – |
| FC(F)(F)COc1cnc(Nc2ccc([C@@H]3CNCCO3)c(Cl)c2)nc1 [Example 203, ((R)-3-Chloro-4-morpholin-2-yl-phenyl)-[5-(2,2,2-trifluoro-ethoxy)-pyrimidin-2-yl]-amine] | 0.0022 µM | 0.0017 µM | – | – |
| FC(F)(F)c1cnc(Nc2ccc([C@@H]3CNCCO3)c(Cl)c2)nc1 [Example 204, ((R)-3-Chloro-4-morpholin-2-yl-phenyl)-(5-trifluoromethyl-pyrimidin-2-yl)-amine] | 0.0038 µM | 0.0021 µM | – | – |
| Clc1cnc(Nc2ccc([C@@H]3CNCCO3)cc2)cn1 [Example 205, (R)-5-Chloro-N-(4-(morpholin-2-yl)phenyl)pyrazin-2-amine] | 0.0026 µM | 0.162 µM | – | – |
| Clc1cncc(Nc2ccc([C@@H]3CNCCO3)cc2)n1 [Example 206, (R)-6-Chloro-N-(4-(morpholin-2-yl)phenyl)pyrazin-2-amine] | 0.005 µM | 0.0963 µM | – | – |
| Fc1cc(Nc2ncc(OCC(F)(F)F)cn2)ccc1[C@@H]1CNCCO1 [Example 207, (R)—N-(3-Fluoro-4-(morpholin-2-yl)phenyl)-5-(2,2,2-trifluoroethoxy)pyrimidin-2-amine] | 0.0043 µM | 0.0102 µM | – | – |
| Fc1cc(Nc2nccc(OCC(F)(F)F)n2)ccc1[C@@H]1CNCCO1 [Example 208, (R)—N-(3-Fluoro-4-(morpholin-2-yl)phenyl)-4-(2,2,2-trifluoroethoxy)pyrimidin-2-amine] | 0.003 µM | 0.0035 µM | – | – |
| Fc1cc(Nc2ncc(F)c(OCC(F)(F)F)n2)ccc1[C@@H]1CNCCO1 [Example 209, (R)-5-Fluoro-N-(3-fluoro-4-(morpholin-2-yl)phenyl)-4-(2,2,2-trifluoroethoxy)pyrimidin-2-amine] | 0.0032 µM | 0.0025 µM | – | – |
| Fc1cc(Nc2ncc(Cl)cn2)ccc1[C@@H]1CNCCO1 [Example 210, (R)-5-Chloro-N-(3-fluoro-4-(morpholin-2-yl)phenyl)pyrimidin-2-amine] | 0.0047 µM | 0.0266 µM | – | – |
| FC(F)(F)COc1ccnc(Nc2ccc([C@@H]3CNCCO3)c(Cl)c2)n1 [Example 211, ((R)-3-Chloro-4-morpholin-2-yl-phenyl)-[4-(2,2,2-trifluoro-ethoxy)-pyrimidin-2-yl]-amine] | 0.0042 µM | 0.0011 µM | – | – |
| CCN(C[C@H]1COC(N)=N1)c1ccccc1 [^3[H]-(S)-4-[(ethyl-phenylamino)-methyl]-4,5-dihydro-oxazol-2-ylamine, reference compound] | – | – | ~9.15 | ~8.64 |
